In patent US20150297782A1, “NITRIC OXIDE-RELEASING DRESSINGS” (priority 2008, published 2015):

Columns and labels:
[1] = humans, delivery to an infection site; cited from earlier work
bacterial burden = settings: "It has been shown", no test described; cited from earlier work
[2] = Effect of varying oxygen concentrations on efficacy of 1000 ppm NO exposure; assay type: cell-based
Description: Prior art devices for delivering NO to treat wounds have required a closed environment. […] The oxygen may be environmental oxygen or may be delivered via an oxygen generating component within the dressing or apparatus.
The effect of various oxygen concentration levels on the efficacy of 1000 ppm treatment of NO was studied.

[N]=O [NO, Nitric oxide]
side-effects [1]: does not have significant side-effects
reduction of the bacterial burden (bacterial burden): 5-6 log10 cfu/mL
CFU/mL ([2]; 0% Oxygen, 2 hour): 100,000 CFU/mL
CFU/mL ([2]; 0% Oxygen, 4 hour): 100,000 CFU/mL
CFU/mL ([2]; 14.5% Oxygen, 2 hour): 2730 CFU/mL
CFU/mL ([2]; 14.5% Oxygen, 3 hour): 78 CFU/mL
CFU/mL ([2]; 14.5% Oxygen, 4 hour): 0 CFU/mL
CFU/mL ([2]; 21% Oxygen, 1 hour): 100,000 CFU/mL
CFU/mL ([2]; 21% Oxygen, 2 hour): 10,000 CFU/mL
CFU/mL ([2]; 21% Oxygen, 3 hour): 0 CFU/mL
CFU/mL ([2]; 21% Oxygen, 4 hour): 0 CFU/mL
